What was measured:
[1] = system: SK-BR-3; details: 72 h
How it was run: (§1)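 Per-plate normalisation used 0.1 % DMSO and a positive kill control. Breast cancer cell lines (20 µl suspension) were seeded into 384-well plates containing compound at 5 concentrations in 10-fold steps across a compound-specific 10,000-fold range, incubated for 72 h, and read first for CellTox Green fluorescence (485/520 nm), then for CellTiter-Glo luminescence. EC50 was fitted from the dose-response curves and censored at the top concentration.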

[2] = system: CAL-51; details: 72 h
How it was run: as §1

[3] = system: DU-4475; details: 72 h
How it was run: as §1

[4] = system: MDA-MB-436; details: 72 h
How it was run: as §1

[5] = system: MDA-MB-231; details: 72 h
How it was run: as §1

[6] = system: Hs578T; details: 72 h
How it was run: as §1

[7] = system: HCC1599; details: 72 h
How it was run: as §1

[8] = system: MCF-10A; details: 72 h
How it was run: as §1

[9] = system: HCC1937; details: 72 h
How it was run: as §1

[10] = system: MDA-MB-453; details: 72 h
How it was run: as §1

[11] = system: CAL-120; details: 72 h
How it was run: as §1

[12] = system: MFM-223; details: 72 h
How it was run: as §1

[13] = system: HCC1143; details: 72 h
How it was run: as §1

[14] = system: HDQ-P1; details: 72 h
How it was run: as §1

[15] = system: BT-474; details: 72 h
How it was run: as §1

[16] = system: BT-549; details: 72 h
How it was run: as §1

[17] = system: CAL-148; details: 72 h
How it was run: as §1

[18] = system: CAL-85-1; details: 72 h
How it was run: as §1

[19] = system: MFM-223; assay: drug sensitivity score (DSS), CellTox Green (DSS (AUC-based score)); higher = stronger drug effect (viability inhibition or cytotoxicity); extreme values may be limits of the assay; details: incubation time: 72 h
How it was run: (§2)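 The drug sensitivity score was computed from the area under the fitted dose-response curve. Breast cancer cell lines in 20 µl suspension went into 384-well plates holding compound at 5 concentrations (10-fold steps over a 10,000-fold, compound-specific range) for 72 h of incubation. CellTox Green fluorescence (485/520 nm) was read before CellTiter-Glo luminescence, the latter after 10 min at room temperature, and each plate was normalised to 0.1 % DMSO and a positive kill control.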

[20] = system: HCC1143; assay: as above; details: incubation time: 72 h
How it was run: as §2

[21] = system: HDQ-P1; assay: as above; details: incubation time: 72 h
How it was run: as §2

[22] = system: CAL-148; assay: as above; details: incubation time: 72 h
How it was run: as §2

SMILES	EC50, CellTiter-Glo [1] [µM]	EC50, CellTiter-Glo [2] [µM]	EC50, CellTiter-Glo [3] [µM]	EC50, CellTiter-Glo [4] [µM]	EC50, CellTiter-Glo [5] [µM]	EC50, CellTiter-Glo [6] [µM]	EC50, CellTiter-Glo [7] [µM]	EC50, CellTiter-Glo [8] [µM]	EC50, CellTiter-Glo [9] [µM]	EC50, CellTiter-Glo [10] [µM]	EC50, CellTiter-Glo [11] [µM]	EC50, CellTiter-Glo [12] [µM]	EC50, CellTiter-Glo [13] [µM]	EC50, CellTiter-Glo [14] [µM]	EC50, CellTiter-Glo [15] [µM]	EC50, CellTiter-Glo [16] [µM]	EC50, CellTiter-Glo [17] [µM]	EC50, CellTiter-Glo [18] [µM]	drug sensitivity score [19]	drug sensitivity score [20]	drug sensitivity score [21]	drug sensitivity score [22]
COCC[n+]1c2c(n(Cc3cnccn3)c1C)C(=O)c1ccccc1C2=O [YM155]	0.0168	0.0166	0.0578	0.0039	0.00802	0.212	0.00729	0.0272	0.0112	0.0252	0.00332	0.0272	0.0114	0.0173	0.00416	0.0655	0.0199	0.0055	11.4	23.5	30.2	29.4
CNC(=O)c1cccc(-c2ccc3c(N4CCOC[C@@H]4C)nc(N4CCOC[C@@H]4C)nc3n2)c1 [AZD2014]	0.116	0.131	1.4	0.121	0.316	0.459	3.62	0.493	0.285	0.195	0.224	0.123	0.366	0.12	0.286	0.228	0.395	0.29	3.63	0	0	11

From the supplement of paper PMC4862054
